How the values were obtained:
MOR132-1 = target: T1, MOR132-1 (Mus musculus, UniProt Q8VFM9); assay: High-throughput multiplexed odorant screening (Smell-seq), barcode RNA-seq readout; assay type: cell-based; settings: OR MOR132-1; pair called as hit, FDR=1%
T1 construct: protein trafficking tags (N); expressed in transfected cells; host or cells: HEK293T-derived cells (Mukku3a), PiggyBac transposon, Tet-On inducible
Source text: (§1) We subsequently screened 182 odorants at three concentrations in triplicate against the OR cell library, the equivalent of ˜85,000 individual luciferase assays including controls (FIG. 10A, Table 2). Each 96-well plate in the assay contained positive control odorants and solvent DMSO wells for normalization (FIG. 16). We used the EdgeR software package to determine differentially responsive ORs based on a negative binomial model of barcode counts. We found 114 OR-odorant interactions (out of 7,200 possible), 81 of which are novel, and 24 interactions with 15 orphan receptors (FIG. 10C, FIG. 17 and Supplementary Table 4) (FDR=1%; Benjamini-Hochberg correction). Overall 28 of 39 receptors were activated by at least one odorant, and 68 of 182 odorants activated at least one OR (Table 4). We chose 37 interactions of at least 1.2 fold induction to test individually with a previously developed transient OR assay that has several important differences (FIG. 18). Of the 28 interactions called as hits at an FDR of 1%, 21 of them replicated in this orthogonal system (FIG. 17). […] Conversely, we also detect 14 interactions that this previous study tested, but called negative.

MOR189-1 = assay: as above; assay type: cell-based, mouse; settings: OR MOR189-1; pair called as hit, FDR=1%
Source text: as §1

MOR30-1 = assay: as above; assay type: cell-based, mouse; settings: OR MOR30-1; pair called as hit, FDR=1%
Source text: as §1

MOR142-1 = assay: as above; assay type: cell-based, mouse; settings: OR MOR142-1; pair called as hit, FDR=1%
Source text: as §1

MOR208-1 = assay: as above; assay type: cell-based, mouse; settings: OR MOR208-1; pair called as hit, FDR=1%
Source text: as §1

MOR120-1 = assay: as above; assay type: cell-based, mouse; settings: OR MOR120-1; pair called as hit, FDR=1%
Source text: as §1

MOR102-1 = assay: as above; assay type: cell-based, mouse; settings: OR MOR102-1; pair called as hit, FDR=1%
Source text: as §1

MOR180-1 = target: T2, MOR180-1 (Mus musculus, UniProt Q8VGS3); assay: as above; assay type: cell-based; settings: OR MOR180-1; pair called as hit, FDR=1%
T2 construct: protein trafficking tags (N); expressed in transfected cells; host or cells: HEK293T-derived cells (Mukku3a), PiggyBac transposon, Tet-On inducible
T2 sequence (Q8VGS3 whole entry): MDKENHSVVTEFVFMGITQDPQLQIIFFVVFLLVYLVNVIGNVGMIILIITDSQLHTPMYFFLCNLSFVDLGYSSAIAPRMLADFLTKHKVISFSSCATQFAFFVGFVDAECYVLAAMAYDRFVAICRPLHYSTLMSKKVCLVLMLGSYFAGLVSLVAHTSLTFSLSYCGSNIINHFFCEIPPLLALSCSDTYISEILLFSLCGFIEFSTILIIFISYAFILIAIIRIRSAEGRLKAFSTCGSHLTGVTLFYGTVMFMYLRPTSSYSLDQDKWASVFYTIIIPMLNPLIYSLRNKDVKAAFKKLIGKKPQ
Source text: as §1

MOR170-1 = assay: High-throughput multiplexed odorant screening (Smell-seq), 96-well, barcode RNA-seq readout; assay type: cell-based, mouse; settings: OR MOR170-1; pair called as hit, FDR=1%
Protocol: 10. High-Throughput Odorant Screening
The OR library cell line was thawed from a liquid nitrogen frozen stock into a T-225 flask (Corning) three days before seeding into a 96-well plate for screening. The library was seeded at 6,666 cells per well in 100 ul of DMEM. 24 hours later a working concentration of 1 ug/ml of doxycycline in DMEM was added to the wells. 24 hours after induction, the media was removed from each plate and replaced with 25 ul of odorant diluted in OptiMEM. Each odor was added at three different concentrations (10 uM, 100 uM, 1 mM) in triplicate with the same amount of final DMSO (1%). Each plate contained two control odorants at a three concentration (10 uM, 100 uM, 1 mM) in triplicate and three wells containing 1% DMSO dissolved in media. The library was incubated with odorants for three hours in a cell culture incubator with the lids removed.
After odor incubation, media was pipetted out of the plates and cells were lysed by adding 25 uL of ice-cold Cells-to-cDNA II Lysis Buffer (Thermo Fisher) and pipetting up and down to homogenize and lyse cells. The lysate was then heated to 75° C. for 15 minutes and flash frozen with liquid nitrogen and kept at −80 C until further processing. Then 0.5 uL DNase I (New England Biolabs) was added to lysate, and incubated at 37° C. for 15 minutes. To anneal the RT primer, 5 ul of lysate from each well was combined with 2.5 ul of 10 mM dNTPs (New England Biosciences), 1 ul of 2 uM gene specific RT primer (OL003), and 1.5 ul of H2O. The reaction was heated to 65° C. for 5 min and cooled back down to 0° C. After annealing, 1 ul of M-MuLV Reverse Transcriptase (Enzymatics), 1 ul of buffer, and 0.25 ul of RNase Inhibitor (Enzymatics) were added to each reaction. Reactions were incubated at 42° C. for 60 min and the RT enzyme was heat inactivated at 85° C. for 10 min.
For each batch, qPCR was performed on a few wells (OL005F and OL013) with SYBR FAST qPCR Mastermix to determine the number of cycles necessary for PCR based library preparation. The reaction and cycling conditions are optimized as follows: 95° C. for 3 minutes, 40 cycles of 95° C. for 3 seconds and 60° C. for 20 seconds. After qPCR, 5 ul of each RT reaction was combined with 0.4 ul of 10 uM primers containing sequencing adaptors (OL005F and OL013), 10 ul of NEB-Next Q5 Mastermix (New England Biosciences) and 4.2 ul H2O, the PCR was carried out according to the manufacturer's protocol. The forward primer contains the P7 adaptor sequence and an index identifying the well in the assay and the reverse primer contains the P5 adaptor sequence and an index identifying the plate in the assay. PCR products were pooled together by plate and purified with the DNA Clean and Concentrator Kit. Library concentrations were quantified using a Tape Station 2200 and a Qubit (Thermo Fisher). The libraries were sequenced with two index reads and a single end 75-bp read on a NextSeq 500 in high-output mode (Illumina).
11. Analysis of Next-Generation Sequencing Data
Samples were identified via indexing by their PCR indexes adapters unique for each well (5′ end) and unique for each plate (3′ end). The well barcodes followed the 7 bp indexing scheme in (Illumina Sequencing Library Preparation for Highly Multiplexed Target Capture and Sequencing Matthias Meyer, Martin Kircher, Cold Spring Harb Protoc; 2010; doi:10.1101/pdb.prot5448). The plate indexing scheme followed the Illumina indexing scheme. Sequencing data was demultiplexed and 15 bp barcode sequences were counted with only exact matches by custom python and bash scripts.
12. Statistical Methods for Calling Hits
Count data was then analyzed using the differential expression package EdgeR. To filter out ORs with low representation, we set a cutoff that an OR had to contain at least 0.5% of the reads from more than 399 of the 1954 test samples. This filtered out 3 of 42 ORs which were underrepresented in the cell library (MOR172-1, MOR176-1 and MOR181-1). […]

MOR 199-1 = assay: High-throughput multiplexed odorant screening (Smell-seq), barcode RNA-seq readout; assay type: cell-based, mouse; settings: OR MOR 199-1; pair called as hit, FDR=1%
Source text: as §1

Olfr62 = assay: as above; assay type: cell-based, mouse; settings: OR Olfr62; pair called as hit, FDR=1%
Source text: as §1

T1 sequence (Q8VFM9 whole entry): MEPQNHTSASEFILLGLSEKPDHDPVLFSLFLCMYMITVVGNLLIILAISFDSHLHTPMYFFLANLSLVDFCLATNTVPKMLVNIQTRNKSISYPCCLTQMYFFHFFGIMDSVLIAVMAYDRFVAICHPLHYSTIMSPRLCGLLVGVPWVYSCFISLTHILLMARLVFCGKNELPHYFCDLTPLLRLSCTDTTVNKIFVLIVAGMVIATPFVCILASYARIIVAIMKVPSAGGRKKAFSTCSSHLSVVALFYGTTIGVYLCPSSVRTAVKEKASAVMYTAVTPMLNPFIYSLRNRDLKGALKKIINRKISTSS

Structure (SMILES): CC(=O)O[C@]1(C)CC[C@@]23C[C@@H]1C(C)(C)[C@@H]2CC[C@H]3C [Cedryl acetate]
- Minimum Activating Concentration (MOR132-1): 1000 µM
- Minimum Activating Concentration (MOR189-1): 1000 µM
- Minimum Activating Concentration (MOR30-1): 1000 µM
- Minimum Activating Concentration (MOR142-1): 1000 µM
- Minimum Activating Concentration (MOR208-1): 1000 µM
- Minimum Activating Concentration (MOR120-1): 1000 µM
- Minimum Activating Concentration (MOR102-1): 1000 µM

Structure (SMILES): CCCCC/C(=C\c1ccccc1)C(OC)OC [a-Amylcinnamaldehyde dimethyl acetal]
- Minimum Activating Concentration (MOR180-1): 1000 µM

Structure (SMILES): CCc1occc(=O)c1O [ethyl maltol]
- Minimum Activating Concentration (MOR170-1): 1000 µM
- Minimum Activating Concentration (MOR 199-1): 100 µM
- Minimum Activating Concentration (Olfr62): 1000 µM
